For data set [1], the system named is LoVo xenograft tumors. In kind it is in vivo. The note with it: 3.19.3 10 mg/kg 2×wk i.p., 5FU 100 mg/kg/week i.p., combination of both. The procedure:
(§1) The anti-tumor activity of 3.19.3 was evaluated in combination with 5-Fluoruracil (5FU) in the LoVo xenograft model of colorectal cancer. LoVo cells were cultured in flasks as routine until the cells reached sub-confluence. Cell suspensions containing approximately 3×10E6 cells were injected subcutaneously into the flank of female Swiss nude mice. When the tumor volume reached 200 mm^3, the mice were randomized in treatment groups of 8-10 mice and the treatments were initiated. 3.19.3 (10 mg/kg) in saline was injected intraperitoneally, twice per week for 2 weeks and 5-Flurouracil (100 mg/kg) was administered by intraperitoneal administration following a weekly schedule. The dimensions of each tumor and body weights were measured at least twice per week. The volume of the tumor was calculated as: Volume=Length×(Width)×0.5 (cm^3).

The subject of data set [2] is MCF7 xenograft tumors. The experiment in a line: MCF7 breast cancer xenograft model. In kind it is in vivo. As to conditions: 3.19.3 10 mg/kg 2×wk i.p., AZD6495 30 mg/kg bid p.o. 18 d, combination of both. The method, then:
The anti-tumor activity of the anti-Angiopoietin-2 monoclonal antibody 3.19.3 in combination with the small molecule CSF1R tyrosine kinase inhibitor AZD6495 (4-[(2,4-difluorophenyl)amino]-7-ethoxy-6-(4-methylpiperazin-1-yl)quinoline-3-carboxamide) was evaluated in a xenograft model of human breast carcinoma using the MCF7 cell line (FIG. 4a).
Materials and Methods: Breast carcinoma MCF7 cells were cultured in flasks as routine until the cells reach sub-confluence. Immunodeficient 7-10 week old male NCr-nude mice were subcutaneously implanted with 8×10^6 MCF7 cells suspended 1:1 in Matrigel in the right flank. […]
The mice were then randomized into cohorts containing 15 mice once the tumors reached approximately 100 mm^3. […] The body weights of each animal, and the dimensions of each tumor were measured twice per week. The volume of the tumor was calculated as: Volume=Length×(Width)^2×0.5 cm^3, or by bilateral Vernier caliper measurement and, taking length to be the longest diameter across the tumor and width the corresponding perpendicular, calculated using the formula (π/6)×(length×width)×√(length×width). Growth inhibition from the start of treatment was assessed by comparison of the differences in tumor volume between control and treated groups.

For data set [3], the system named is MDA-MB-231 xenograft tumors. The experiment in a line: MDA-MB-231 orthotopic breast cancer xenograft model. In kind it is in vivo. As to conditions: 3.19.3 10 mg/kg 2×wk i.p., AZD6495 30 mg/kg bid p.o. 18 d, combination of both. The procedure:
The anti-tumor activity of the anti-Angiopoietin-2 monoclonal antibody 3.19.3 in combination with the small molecule CSF1R tyrosine kinase inhibitor AZD6495 was evaluated in a xenograft model of human breast carcinoma using the MDA-MB-231 cell line (FIG. 5a).
Breast adenocarcinoma MDA-MB-231 cells were cultured in flasks as routine until the cells reach sub-confluence. Immunodeficient 7-10 week old female nude mice were orthotopically implanted with 8×10^6 MDA-MB-231 cells suspended 1:1 in Matrigel into the mammary fat pad. The mice were then randomized into cohorts containing 10 mice once the tumors reached approximately 100 mm^3. The mice were treated by intraperitoneally (IP) injection with mAb 3.19.3 (10 mg/kg) twice per week for 3 weeks thereafter, or by oral administration of AZD6495 (30 mg/kg) following bid dosing for 18 days. […] The body weights of each animal, and the dimensions of each tumor were measured twice per week. The volume of the tumor was calculated as: Volume=Length×(Width)^2×0.5 cm^3, or by bilateral Vernier caliper measurement and, taking length to be the longest diameter across the tumor and width the corresponding perpendicular, calculated using the formula (π/6)×(length×width)×√(length×width). Growth inhibition from the start of treatment was assessed by comparison of the differences in tumor volume between control and treated groups.

Data set [4] concerns Calu6 xenograft tumors. In kind it is in vivo. As to conditions: 3.19.3 10 mg/kg 2×wk i.p., Docetaxel 15 mg/kg/week i.v., combination of both. The method, then: as §1, with “with Docetaxel” for “with 5-Fluoruracil (5FU)”, “the Calu6” for “the LoVo”, “of lung” for “of colorectal”, “cancer. Calu6” for “cancer. LoVo”, “2 weeks. Docetaxel (15” for “2 weeks and 5-Flurouracil (100”, “by intravenous” for “by intraperitoneal”

Data set [5] has as its system Colo205 xenograft tumors. Briefly: Colo205 xenograft model of colorectal cancer. It is filed as in vivo. The note with it: 3.19.3 10 mg/kg 2×wk i.p., Gemcitabine 50 mg/kg q3dx2 i.v., combination of both. The method, then: (§2) The anti-tumor activity of 3.19.3 was evaluated in combination with Gemcitabine in the Colo205 xenograft model of colorectal cancer. Colo205 cells were cultured in flasks as routine until the cells reached sub-confluence. Cell suspensions containing approximately 3×10E6 cells were injected subcutaneously into the flank of female Swiss nude mice. When the tumor volume reached 200 mm^3, the mice were randomized in treatment groups of 8-10 mice and the treatments were initiated. 3.19.3 (10 mg/kg) in saline was injected intraperitoneally, twice per week for 2 weeks. Gemcitabine (50 mg/kg) was administered by intravenous administration following a q3d schedule. The dimensions of each tumor and body weights were measured at least twice per week. The volume of the tumor was calculated as: Volume=Length×(Width)×0.5 (cm^3). […] The % tumor growth inhibition achieved is as follows: […]

The test system of data set [6] is HT-29 xenograft tumors. The experiment in a line: HT-29 xenograft model of colorectal cancer. In kind it is in vivo. As to conditions: 3.19.3 10 mg/kg 2×wk i.p., Irinotecan 35 mg/kg/week i.v., combination of both. The method, then:
as §2, with “Irinotecan” for “Gemcitabine”, “HT-29” for “Colo205”, “Irinotecan (35” for “Gemcitabine (50”, “weekly” for “q3d”

The subject of data set [7] is H460 xenograft tumors. It is filed as in vivo. The note with it: 3.19.3 10 mg/kg 2×wk i.p., Oxaliplatin 5 mg/kg/week i.p., combination of both. The procedure: as §1, with “Oxaliplatin” for “5-Fluoruracil (5FU)”, “H460” for “LoVo”, “lung” for “colorectal”, “weeks. Oxaliplatin (5” for “weeks and 5-Flurouracil (100”
Data set [8] relates to collagen-induced arthritis. The experiment in a line: Collagen-induced arthritis (CIA), dose response (Example 11). In kind it is in vivo, male DBA/1 mice.
Data set [9] relates to collagen induced arthritis.
Data set [10] in a line: Stability study: rate of aggregation of antibody formulations. The note with it: 10 mg/ml in 10 mM histidine pH 6.0, two weeks. In kind it is physicochemical. The procedure:
Samples of the aforementioned formulations were incubated at either 25° C. or 40° C. for two weeks. As a measure of stability, the rate of aggregation (% aggregation/mth) was calculated after the two week time point.

Data set [11] is described as follows: Differential Scanning Calorimetry (DSC) analysis. The note with it: 1 g/L antibody in 10 mM histidine, pH 6.0. It is filed as physicochemical. For orientation: DSC measures the heat that a sample takes up or gives off during a temperature scan.
Setting [12] is: 3 mg/kg po daily for 14 days from disease onset.
The mark [13] stands for this setting: means ± SEM, 3.19.3 10 mg/kg i.p every 3 days, hIgG i.p, Prednisolone 3 mg/kg p.o daily, 14 days from disease onset.

“Also recorded” adds a separate entry of the source. Where two headings read alike, the source gives them in different places. Marks after values point to notes of the source that are not given here.

As to `O=c1[nH]cc(F)c(=O)[nH]1` [5-flurouracil, 5-Flurouracil], the “% tumor growth inhibition” value in data set [1] and in data set [1] (listed as 5 FU) was 62% in each case.

With `CCOc1cc2ncc(C(N)=O)c(Nc3ccc(F)cc3F)c2cc1N1CCN(C)CC1` [AZD6495, 4-[(2,4-difluorophenyl)amino]-7-ethoxy-6-(4-methylpiperazin-1-yl)quinoline-3-carboxamide], the “% tumor growth inhibition” value turned out to be 32% in data set [2] and 25% in [3].

As for `CC(=O)O[C@@]12CO[C@@H]1C[C@H](O)[C@@]1(C)C(=O)[C@H](O)C3=C(C)[C@@H](OC(=O)[C@H](O)[C@@H](NC(=O)OC(C)(C)C)c4ccccc4)C[C@@](O)([C@@H](OC(=O)c4ccccc4)[C@H]21)C3(C)C` [Docetaxel], the “% tumor growth inhibition” value in [4] came to 43%.

Take `Nc1ccn([C@@H]2O[C@H](CO)[C@@H](O)C2(F)F)c(=O)n1` [Gemcitabine]: in data set [5], the “% tumor growth inhibition” value was found to be 8%.

Regarding `CCc1c2c(nc3ccc(OC(=O)N4CCC(N5CCCCC5)CC4)cc13)-c1cc3c(c(=O)n1C2)COC(=O)[C@]3(O)CC` [Irinotecan], in [6], the “% tumor growth inhibition” value turned out to be 56%.

For the molecule `O=C1[O][Pt]2([NH][C@@H]3CCCC[C@H]3[NH]2)[O]C1=O` [Oxaliplatin], in data set [7], the “% tumor growth inhibition” value was found to be 35%.

With `C[C@]12C=CC(=O)C=C1CC[C@@H]1[C@@H]2[C@@H](O)C[C@@]2(C)[C@H]1CC[C@]2(O)C(=O)CO` [Prednisolone], in data set [8] (setting [12]), the “% inhibition (AUC of Clinical Score)” value was determined as 78% +/− 7%* and the “AUC of Clinical Score” value is 41 +/− 08. Moreover, the “CD31+ microvessel density in synovium (in words)” value in data set [8] (3.19.3 at 1 and 10 mg/kg, prednisolone 3 mg/kg) is “significant reduction in microvessel density; also recorded: significant reduction in the presence of microvessels”. Besides, the “incidence and severity of all measures (in words)” value in [8] (Prednisolone 3 mg/kg p.o.) is “marked reduction in the incidence and severity of all measures”. Further, in data set [9] (3.19.3 10 mg/kg, Human IgG isotype control, Prednisolone 3 mg/kg), the “histopathological evaluation of arthropathy lesions (in words)” value was “marked reduction in the incidence and severity of all arthropathy lesions”. Further, in data set [9] (setting [13]), the “% Inhibition (of AUC of clinical disease progression)” value is 76.1% ± 9.6% and the “Area Under Curve (AUC) of clinical disease progression” value is recorded as 24.5 ± 9.6.

B1: MEDI1/5 IgG1: heavy and light chains SEQ ID Nos. 7 and 3 in IgG1 format (antibody)
VH: QVQLVESGGGVVQPGRSLRLSCAASGFTFTNYGMHWVRQAPGKGLEWVAVISHDGNNKYYVDSVKGRFTISRDNSKNTLYLQMNSLRAEDTAVYYCAREGIDFWSGLNWFDPWGQGTLVTVSS
light: EIVLTQSPGTLSLSPGERATLSCRASQSITGSYLAWYQQKPGQAPRLLITGASSWATGIPDRFSGSGSGTDFTLTISRLEPEDFAVYYCQQYSSSPITFGQGTRLEIKRTVAAPSVFIFPPSDEQLKSGTASVVCLLNNFYPREAKVQWKVDNALQSGNSQESVTEQDSKDSTYSLSSTLTLSKADYEKHKVYACEVTHQGLSSPVTKSFNRGEC
modifications: IgG1 format
Take B1: in data set [10], the “% Agg/mth @ 25° C.” value turned out to be 0.21 % Agg/mth and the “% Agg/mth @ 40° C.” value is on record as 0.21 % Agg/mth. For the same molecule, the melting temperature result in data set [11] is “about 76 °C”.

B2: MEDI1/5 IgG2: heavy and light chains SEQ ID Nos. 7 and 3 in IgG2 format (antibody)
VH: QVQLVESGGGVVQPGRSLRLSCAASGFTFTNYGMHWVRQAPGKGLEWVAVISHDGNNKYYVDSVKGRFTISRDNSKNTLYLQMNSLRAEDTAVYYCAREGIDFWSGLNWFDPWGQGTLVTVSS
light: EIVLTQSPGTLSLSPGERATLSCRASQSITGSYLAWYQQKPGQAPRLLITGASSWATGIPDRFSGSGSGTDFTLTISRLEPEDFAVYYCQQYSSSPITFGQGTRLEIKRTVAAPSVFIFPPSDEQLKSGTASVVCLLNNFYPREAKVQWKVDNALQSGNSQESVTEQDSKDSTYSLSSTLTLSKADYEKHKVYACEVTHQGLSSPVTKSFNRGEC
modifications: IgG2 format
For the molecule B2, in data set [10], the “% Agg/mth @ 25° C.” value is 0.61 % Agg/mth and the “% Agg/mth @ 40° C.” value is 0.82 % Agg/mth. Moreover, in data set [11], the melting temperature entry was “about 76 °C”. Further, the “behaviour after melting in DSC (in words)” value in data set [11] (two independent trials) is reported as “subsequently falls out of solution”.

The values above are taken from patent US8507656B2, “Stabilized angiopoietin-2 antibodies and uses thereof” (MedImmune Limited, priority 2008, dated 2013).
